Key:
Assay type in all cases: cell-based
Conditions in all cases: fluorescent calcium assay
TRPML3 = target: T1, TRPML3 (Homo sapiens, UniProt Q8TDD5); test: Fluorescent TRPML3 assay (performed as for TRPML1, substituting the TRPML3 subtype)
T1 construct: expressed in transfected cells
T1 sequence (Q8TDD5 1-553): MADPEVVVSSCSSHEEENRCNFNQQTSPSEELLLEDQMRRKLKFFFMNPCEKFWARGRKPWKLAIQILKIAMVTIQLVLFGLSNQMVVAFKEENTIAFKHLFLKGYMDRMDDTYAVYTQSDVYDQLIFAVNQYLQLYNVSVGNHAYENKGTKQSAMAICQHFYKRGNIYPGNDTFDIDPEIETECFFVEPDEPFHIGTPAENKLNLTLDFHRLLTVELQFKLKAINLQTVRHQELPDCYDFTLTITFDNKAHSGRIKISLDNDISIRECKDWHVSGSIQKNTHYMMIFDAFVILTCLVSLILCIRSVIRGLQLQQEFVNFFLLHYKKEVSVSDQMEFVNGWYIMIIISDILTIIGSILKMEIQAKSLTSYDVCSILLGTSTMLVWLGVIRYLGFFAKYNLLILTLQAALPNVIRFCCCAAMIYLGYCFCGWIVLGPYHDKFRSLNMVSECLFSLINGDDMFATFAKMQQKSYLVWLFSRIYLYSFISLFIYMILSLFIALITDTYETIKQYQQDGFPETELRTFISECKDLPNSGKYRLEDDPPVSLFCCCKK
Method in brief: (§1)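 Doxycycline-induced (0.5 ug/mL) HEK-293 Trex cells stably expressing surface-directed mutant channel were loaded with 1 micromolar Fluo4-AM, resuspended in Ringer's with 10 mM calcium and added to compound plates. Fluorescence (ex 480, em 540 nm) gave percent activity versus on-plate controls; EC50 by non-linear regression.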

TRPML2 = target: T2, TRPML2 (Homo sapiens, UniProt Q8IZK6); test: Fluorescent TRPML2 assay (performed as for TRPML1, substituting the TRPML2 subtype)
T2 construct: expressed in transfected cells
T2 sequence (Q8IZK6 1-566): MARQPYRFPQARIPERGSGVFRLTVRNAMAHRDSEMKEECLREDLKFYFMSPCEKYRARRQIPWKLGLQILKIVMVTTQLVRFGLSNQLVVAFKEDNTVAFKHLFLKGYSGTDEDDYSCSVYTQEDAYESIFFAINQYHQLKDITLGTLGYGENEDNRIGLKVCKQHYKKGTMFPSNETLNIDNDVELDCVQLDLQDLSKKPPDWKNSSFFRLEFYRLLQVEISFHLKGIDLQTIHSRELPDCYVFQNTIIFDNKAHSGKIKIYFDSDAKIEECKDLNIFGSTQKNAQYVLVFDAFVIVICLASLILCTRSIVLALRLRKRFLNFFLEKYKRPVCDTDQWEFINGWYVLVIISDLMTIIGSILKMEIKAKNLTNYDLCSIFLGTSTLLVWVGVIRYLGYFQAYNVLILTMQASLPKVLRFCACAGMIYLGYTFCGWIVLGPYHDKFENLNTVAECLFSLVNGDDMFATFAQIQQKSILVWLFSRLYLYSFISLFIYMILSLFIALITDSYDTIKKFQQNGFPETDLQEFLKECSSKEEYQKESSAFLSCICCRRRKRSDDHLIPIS
Method in brief: as §1

TRPML1 = TRPML1 (Homo sapiens, UniProt Q9GZU1); test: Fluorescent TRPML1 assay (Fluo4-AM calcium fluorescence in doxycycline-induced HEK-293 Trex cells)
TRPML1, sequence (Q9GZU1 whole entry L15A/L16A/L577A/L578A, form open): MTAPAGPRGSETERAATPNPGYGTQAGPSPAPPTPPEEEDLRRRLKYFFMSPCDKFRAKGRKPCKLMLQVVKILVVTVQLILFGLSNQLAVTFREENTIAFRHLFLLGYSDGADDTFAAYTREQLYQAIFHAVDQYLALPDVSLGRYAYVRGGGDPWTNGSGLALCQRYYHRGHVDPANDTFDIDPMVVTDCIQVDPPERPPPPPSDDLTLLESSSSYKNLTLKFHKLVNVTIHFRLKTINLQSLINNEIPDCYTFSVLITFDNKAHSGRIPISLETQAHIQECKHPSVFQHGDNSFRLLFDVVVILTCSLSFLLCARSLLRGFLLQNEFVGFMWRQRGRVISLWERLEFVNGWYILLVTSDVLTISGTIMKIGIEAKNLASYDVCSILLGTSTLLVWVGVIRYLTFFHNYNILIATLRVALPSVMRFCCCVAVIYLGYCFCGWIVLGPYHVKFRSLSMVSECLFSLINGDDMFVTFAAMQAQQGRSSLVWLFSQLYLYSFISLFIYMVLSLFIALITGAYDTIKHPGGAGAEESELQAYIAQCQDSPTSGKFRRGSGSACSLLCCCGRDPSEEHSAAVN
Method in brief: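 hTRPML1 (mutated for cell-surface expression) in HEK-293 Trex, dox 0.5 ug/mL o/n; Fluo4-AM 1 uM ~60 min, then ~60 min de-esterification, dark; modified Ringer's + 10 mM Ca. Cmpds 20 uM–6 nM final, half-log, n=3. Ex480/Em540; % activity vs ctrls; EC50 by nonlinear regression.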

With `C[C@@H]1CN(C(=O)OC(C)(C)C)CCN1c1ncnc2c1c(C1CC1)cn2-c1cccc(OC(F)(F)F)c1` [Compound 195, tert-butyl (R)-4-(5-cyclopropyl-7-(3-(trifluoromethoxy)phenyl)-7H-pyrrolo[2,3-d]pyrimidin-4-yl)-3-methylpiperazine-1-carboxylate] the EC50 (TRPML3) was less than 100 nM, the EC50 (TRPML2) was 100 to 500 nM and the EC50 (TRPML1) was 100 to 500 nM.
`C[C@H]1CN(C(=O)OC(C)(C)C)CCN1c1ncnc2c1c(C1CC1)cn2-c1cccc(OC(F)(F)F)c1` [Compound 196, tert-butyl (S)-4-(5-cyclopropyl-7-(3-(trifluoromethoxy)phenyl)-7H-pyrrolo[2,3-d]pyrimidin-4-yl)-3-methylpiperazine-1-carboxylate] showed an EC50 (TRPML3) of less than 100 nM, an EC50 (TRPML2) of 100 to 500 nM and an EC50 (TRPML1) of less than 100 nM.
`C[C@@H]1CN(C(=O)OC(C)(C)C)CCN1c1ncnc2c1c(C1CC1)cn2-c1cccc(OC(F)F)c1` [Compound 197, tert-butyl (R)-4-(5-cyclopropyl-7-(3-(difluoromethoxy)phenyl)-7H-pyrrolo[2,3-d]pyrimidin-4-yl)-3-methylpiperazine-1-carboxylate] was tested, and the EC50 (TRPML3) was 100 to 500 nM, the EC50 (TRPML2) was 100 to 500 nM and the EC50 (TRPML1) was 100 to 500 nM.
Compound `C[C@H]1CN(C(=O)OC(C)(C)C)CCN1c1ncnc2c1c(C1CC1)cn2-c1cccc(OC(F)F)c1` [Compound 198, tert-butyl (S)-4-(5-cyclopropyl-7-(3-(difluoromethoxy)phenyl)-7H-pyrrolo[2,3-d]pyrimidin-4-yl)-3-methylpiperazine-1-carboxylate] has an EC50 (TRPML3) of less than 100 nM, an EC50 (TRPML2) of 100 to 500 nM and an EC50 (TRPML1) of less than 100 nM.
For `C[C@@H]1CN(C(=O)OC(C)(C)C)CCN1c1ncnc2c1c(C1CC1)cn2-c1cccc(C#N)c1` [Compound 199, tert-butyl (R)-4-(7-(3-cyanophenyl)-5-cyclopropyl-7H-pyrrolo[2,3-d]pyrimidin-4-yl)-3-methylpiperazine-1-carboxylate], the EC50 (TRPML3) was 100 to 500 nM, the EC50 (TRPML2) was 100 to 500 nM and the EC50 (TRPML1) was 100 to 500 nM.
`C[C@H]1CN(C(=O)OC(C)(C)C)CCN1c1ncnc2c1c(C1CC1)cn2-c1cccc(C#N)c1` [Compound 200, tert-butyl (S)-4-(7-(3-cyanophenyl)-5-cyclopropyl-7H-pyrrolo[2,3-d]pyrimidin-4-yl)-3-methylpiperazine-1-carboxylate] showed an EC50 (TRPML3) of less than 100 nM, an EC50 (TRPML2) of 100 to 500 nM and an EC50 (TRPML1) of less than 100 nM.
Work on `COc1cccc(-n2cc(C3CC3)c3c(N4CCN(C(=O)OC(C)(C)C)C[C@H]4C)ncnc32)c1` [Compound 201, tert-butyl (R)-4-(5-cyclopropyl-7-(3-methoxyphenyl)-7H-pyrrolo[2,3-d]pyrimidin-4-yl)-3-methylpiperazine-1-carboxylate] yielded an EC50 (TRPML3) of 100 to 500 nM, an EC50 (TRPML2) of 500 to 2000 nM and an EC50 (TRPML1) of 100 to 500 nM.
`COc1cccc(-n2cc(C3CC3)c3c(N4CCN(C(=O)OC(C)(C)C)C[C@@H]4C)ncnc32)c1` [Compound 202, tert-butyl (S)-4-(5-cyclopropyl-7-(3-methoxyphenyl)-7H-pyrrolo[2,3-d]pyrimidin-4-yl)-3-methylpiperazine-1-carboxylate] gave an EC50 (TRPML3) of 100 to 500 nM, an EC50 (TRPML2) of 500 to 2000 nM and an EC50 (TRPML1) of 100 to 500 nM.
`C[C@H]1CN(C(=O)OC(C)(C)C)CCN1c1ncnc2c1c(C1CC1)cn2-c1cc(F)cc(F)c1` [Compound 203, tert-butyl (S)-4-(5-cyclopropyl-7-(3,5-difluorophenyl)-7H-pyrrolo[2,3-d]pyrimidin-4-yl)-3-methylpiperazine-1-carboxylate] gave an EC50 (TRPML3) of less than 100 nM, an EC50 (TRPML2) of 100 to 500 nM and an EC50 (TRPML1) of less than 100 nM.
With `C[C@@H]1CN(c2ncnc3c2c(C2CC2)cn3-c2cc(F)c(F)c(F)c2)CCN1C(=O)OC(C)(C)C` [Compound 204, tert-butyl (R)-4-(5-cyclopropyl-7-(3,4,5-trifluorophenyl)-7H-pyrrolo[2,3-d]pyrimidin-4-yl)-2-methylpiperazine-1-carboxylate] the EC50 (TRPML3) was less than 100 nM, the EC50 (TRPML2) was 100 to 500 nM and the EC50 (TRPML1) was less than 100 nM.
In the case of `C[C@@H]1CN(c2ncnc3c2c(C2CC2)cn3-c2cccc(F)c2F)CCN1C(=O)OC(C)(C)C` [Compound 205, tert-butyl (R)-4-(5-cyclopropyl-7-(2,3-difluorophenyl)-7H-pyrrolo[2,3-d]pyrimidin-4-yl)-2-methylpiperazine-1-carboxylate], the EC50 (TRPML3) is reported as 100 to 500 nM, the EC50 (TRPML2) is reported as 500 to 2000 nM and the EC50 (TRPML1) is reported as 100 to 500 nM.
`C[C@@H]1CN(c2ncnc3c2c(C2CC2)cn3-c2cc(F)ccc2F)CCN1C(=O)OC(C)(C)C` [Compound 206, tert-butyl (R)-4-(5-cyclopropyl-7-(2,5-difluorophenyl)-7H-pyrrolo[2,3-d]pyrimidin-4-yl)-2-methylpiperazine-1-carboxylate] showed an EC50 (TRPML3) of 100 to 500 nM, an EC50 (TRPML2) of 500 to 2000 nM and an EC50 (TRPML1) of less than 100 nM.
`C[C@@H]1CN(c2ncnc3c2c(C2CC2)cn3-c2cc(F)c(F)c(Cl)c2)CCN1C(=O)OC(C)(C)C` [Compound 207, tert-butyl (R)-4-(7-(3-chloro-4,5-difluorophenyl)-5-cyclopropyl-7H-pyrrolo[2,3-d]pyrimidin-4-yl)-2-methylpiperazine-1-carboxylate] gave an EC50 (TRPML3) of less than 100 nM, an EC50 (TRPML2) of 100 to 500 nM and an EC50 (TRPML1) of less than 100 nM.
With `C[C@@H]1CN(c2ncnc3c2c(C2CC2)cn3-c2ccc(F)c(Cl)c2)CCN1C(=O)OC(C)(C)C` [Compound 208, tert-butyl (R)-4-(7-(3-chloro-4-fluorophenyl)-5-cyclopropyl-7H-pyrrolo[2,3-d]pyrimidin-4-yl)-2-methylpiperazine-1-carboxylate] the EC50 (TRPML3) was less than 100 nM, the EC50 (TRPML2) was 100 to 500 nM and the EC50 (TRPML1) was less than 100 nM.
For `C[C@@H]1CN(C(=O)OC(C)(C)C)CCN1c1ncnc2c1c(N1CCCC1)cn2-c1cccc(Cl)c1` [Compound 209, tert-Butyl (R)-4-(7-(3-chlorophenyl)-5-(pyrrolidin-1-yl)-7H-pyrrolo[2,3-d]pyrimidin-4-yl)-3-methylpiperazine-1-carboxylate], the EC50 (TRPML3) was less than 100 nM, the EC50 (TRPML2) was 100 to 500 nM and the EC50 (TRPML1) was less than 100 nM.
`C[C@H]1CN(C(=O)OC(C)(C)C)CCN1c1ncnc2c1c(N1CCCC1)cn2-c1cccc(Cl)c1` [Compound 210, tert-Butyl (S)-4-(7-(3-chlorophenyl)-5-(pyrrolidin-1-yl)-7H-pyrrolo[2,3-d]pyrimidin-4-yl)-3-methylpiperazine-1-carboxylate] gave an EC50 (TRPML3) of less than 100 nM, an EC50 (TRPML2) of less than 100 nM and an EC50 (TRPML1) of less than 100 nM.
For `C[C@@H]1CN(C(=O)OC(C)(C)C)CCN1c1ncnc2c1c(C1CC1)cn2-c1cc(F)cc(F)c1` [Compound 211, tert-butyl (R)-4-(5-cyclopropyl-7-(3,5-difluorophenyl)-7H-pyrrolo[2,3-d]pyrimidin-4-yl)-3-methylpiperazine-1-carboxylate], the EC50 (TRPML3) was less than 100 nM, the EC50 (TRPML2) was 500 to 2000 nM and the EC50 (TRPML1) was 100 to 500 nM.
Work on `C[C@H]1CN(C(=O)OC(C)(C)C)CCN1c1ncnc2c1c(-c1cccnc1)cn2-c1ccc(F)c(Cl)c1` [Compound 212, tert-butyl (S)-4-(7-(3-chloro-4-fluorophenyl)-5-(pyridin-3-yl)-7H-pyrrolo[2,3-d]pyrimidin-4-yl)-3-methylpiperazine-1-carboxylate] yielded an EC50 (TRPML3) of less than 100 nM, an EC50 (TRPML2) of 100 to 500 nM and an EC50 (TRPML1) of less than 100 nM.
`C[C@H]1CN(C(=O)OC(C)(C)C)CCN1c1ncnc2c1c(-c1cccnc1)cn2-c1cc(F)cc(F)c1` [Compound 213, tert-butyl-(S)-4-(7-(3,5-difluorophenyl)-5-(pyridin-3-yl)-7H-pyrrolo[2,3-d]pyrimidin-4-yl)-3-methylpiperazine-1-carboxylate] showed an EC50 (TRPML3) of 100 to 500 nM, an EC50 (TRPML2) of 500 to 2000 nM and an EC50 (TRPML1) of 100 to 500 nM.

From US20250136606A1, “MODULATORS OF TRPML, THEIR COMPOSITIONS AND METHODS OF USE” (Caraway Therapeutics, Inc., priority 2021, published 2025)
